Assay results taken from US12317897B2, “Methods of controlling or preventing infestation of vegetable, tomato and potato plants by phytopathogenic microorganisms” (SYNGENTA CROP PROTECTION AG, priority 2017, dated 2025).

Columns and labels:
Type in all cases: in vivo
[1] = tested on: Fusarium oxysporum; experiment: Fusarium oxysporum in melon, greenhouse trial, drench at planting; conditions: 60 g AI/ha, 69 days after planting
Experimental: Fusarium oxysporum in Melon:
A melon greenhouse trial was carried out in El Ejido, Almeria, Spain in 2017 to evaluate the efficacy of different compounds against Fusarium oxysporum in melon.
The melon transplants were planted on May 5, 2017 and the afterwards drench applied with the compounds using a water volume of 100 ml per plant.
In order to increase the disease pressure each plot has been inoculated with 900 ml Fusarium oxysporum suspension with a concentration of 100′000 spores per millilitre of water three days before transplanting. The first disease symptoms were visible three weeks after transplanting and an assessment on disease severity and was done 69 days after transplanting on Jul. 13, 2017.
Assessments: Pest Severity, 69 Days after Planting

[2] = tested on: Fusarium oxysporum; experiment: Fusarium oxysporum in tomato, greenhouse trial, drench at planting; conditions: 100 g AI/ha, 132 days after planting
Experimental: Fusarium oxysporum in Tomato:
A tomato greenhouse trial was carried out in Sanlucar de Barrameda, Cadiz, Spain in 2017 to evaluate the efficacy of different compounds against Fusarium oxysporum in tomato.
Three week old tomato plants were transplanted on Apr. 7, 2017 and the afterwards drench applied with the compounds using a water volume of 100 ml per plant.
In order to increase the disease pressure 60 ml Fusarium oxysporum suspension with a concentration of 1′000′000 spores per milliliter of water was drenched directly in the planting hole were the plants will be transplanted the next day. The assessment on disease incidence and was done 132 days after transplanting on Aug. 17, 2017.
Assessments: Pest Incidence, 132 Days after Planting

[3] = tested on: Fusarium oxysporum; experiment: Fusarium oxysporum on okra, field trial, drench at planting; conditions: 375 g AI/ha, 60 days after planting
Experimental: Fusarium oxysporum on Okra:
An okra field trial was carried out in Kuppanur, Coimbatore, India in 2018 to evaluate the efficacy of different compounds against Fusarium oxysporum in okra.
The okra seeds were planted on Jun. 29, 2018 and directly afterwards drench applied with the compounds using a water volume of 50 ml per plant. The disease occurred two weeks after planting and an assessment on disease incidence and was done Aug. 28, 2018.
Assessments: Pest Incidence, 60 Days after Planting

[4] = tested on: Alternaria solani; experiment: Alternaria solani (early blight) on potato, field trial, in-furrow spray at planting; conditions: 250 g AI/ha, 89 days after planting
Experimental: Alternaria solani on Potato: A potato field trial was carried out in Tompkins, New York, USA in 2018 to evaluate the efficacy of different compounds against early blight disease caused by Alternaria solani. The potato tubers were applied in-furrow at planting by using boom sprayer with a flat fan nozzle. The disease occurred beginning of August and an assessment on disease severity and was done Sep. 5, 2018. [table] [table] [table] [table] [table] [table] Assessments: Pest Severity, 89 Days after Planting

SMILES	Pest severity (%) ([1]; melon Brisa, CHECK 82.41)	% efficacy based on pest severity ([1]; melon) [%]	Pest incidence (%) ([2]; tomato Irati, CHECK 78.33)	% efficacy based on pest incidence ([2]; tomato) [%]	Pest incidence (%) ([3]; okra Samrat, CHECK 84.20)	Emax at 375 g/ha ([3]; Fusarium oxysporum, in Abelmoschus esculentus, soil, 1440 h, okra, read-out: % efficacy based on pest incidence) [%]	Pest severity (%) ([4]; potato Red Norland, CHECK 97.25)	Emax at 250 g/ha ([4]; Alternaria solani, 2136 h, potato, read-out: % efficacy based on pest severity) [%]
CON(C(=O)c1cn(C)nc1C(F)F)C(C)Cc1c(Cl)cc(Cl)cc1Cl (centres unmarked) [COMPOUND 2 SC 200, PYDIFLUMETOFEN]	16.67, B %	79.77	15.00, B %	80.85				
O=C(NCCc1ncc(C(F)(F)F)cc1Cl)c1ccccc1C(F)(F)F [COMPOUND 2 SC 500, Fluopyram]					20.50, C %	75.7	19.75, C %	79.7
